From patent US20230279008A1, “PTGR2 INHIBITORS AND THEIR USE” (National Health Research Institutes, priority 2022, published 2023)

Legend:
human PTGR2 [1] = target: T1, human PTGR2 (Homo sapiens (Human), UniProt Q8N8N7); assay: Cell-based GAL4-PPAR luciferase reporter assay in HEK293T cells transfected with human PTGR2; conditions: UASG reporter, GAL4-PPAR and human PTGR2-Tag vectors, luciferase normalized to TK-Rluc
Protocol: HEK293T cells were seeded at 1×10^5 cells/well in a 24-well plate. […] Cells were treated and harvested in two batches, one after 24 hours and another after 48 hours. The luciferase activity was measured by a Luc-Pair™ Duo-Luciferase HS Assay Kit (commercially available from Promega Corporation) and normalized to the TK-Rluc reporter signal, which was recorded and used to calculate the EC50 value of a PTGR2 inhibitor.

human PTGR2 [2] = target: T1, human PTGR2; assay: In vitro PTGR2 enzyme activity assay (NADPH decrease, Glo-NADPH luminescence); format: biochemical; conditions: 15-keto-PGE2 20 μM, NADPH 20 μM, pH 7.3
Protocol: In vitro enzyme activity was measured to determine the half maximal inhibitory concentration (IC50) of compounds of this invention as PTGR2 inhibitors. The reduction of 15-keto-PGE2 by PTGR2 requires NADPH. The decrease of NADPH during the reduction reaction indicates […] of PTGR2 and thus is used to calculate the IC50 of a PTGR2 inhibitor. […] The resultant mixture was pre-incubated at room temperature for 15 minutes. After the incubation, 15-keto-PGE2 was added to a final concentration of 20 μM, together with NADPH (20 μM, final concentration) and a Glo-NADPH reagent (commercially available from Promega Corporation, Madison, Wis.).

T1 sequence (Q8N8N7 whole entry, the tested form may be a part): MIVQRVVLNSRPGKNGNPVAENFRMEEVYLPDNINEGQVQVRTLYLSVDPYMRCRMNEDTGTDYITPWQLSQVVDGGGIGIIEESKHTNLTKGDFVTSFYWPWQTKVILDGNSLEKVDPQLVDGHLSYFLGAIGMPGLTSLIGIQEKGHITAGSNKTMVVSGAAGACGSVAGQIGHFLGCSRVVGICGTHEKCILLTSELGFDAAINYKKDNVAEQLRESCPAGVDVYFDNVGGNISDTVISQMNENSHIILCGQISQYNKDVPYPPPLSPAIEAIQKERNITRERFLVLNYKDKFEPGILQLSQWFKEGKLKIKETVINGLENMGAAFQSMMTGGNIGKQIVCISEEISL

Question: Which results are given for `COc1ccccc1N1CCN(Cc2nc3[nH]c(C)c(Cc4ccc(Cl)cc4)c(=O)n3n2)CC1` [Compound 1, 6-(4-chlorobenzyl)-2-((4-(2-methoxyphenyl)piperazin-1-yl)methyl)-5-methyl-[1,2,4]triazolo[1,5-a]pyrimidin-7(4H)-one]?
Answer: EC50 (human PTGR2 [1]): 874 nM; IC50 (human PTGR2 [2]): 0.2 nM

Question: With `CC(C)c1cc(=O)[nH]c(SCC(=O)N2CCN(c3nccs3)[C@@H](C)C2)n1` [Compound 2, (S)-6-isopropyl-2-((2-(3-methyl-4-(thiazol-2-yl)piperazin-1-yl)-2-oxoethyl)thio)pyrimidin-4(3H)-one] as the compound, how does the EC50 (human PTGR2 [1]) read?
Answer: Its EC50 is 112 nM.

Question: What about the IC50 (human PTGR2 [2]) of the same compound?
Answer: The IC50 was 43 nM.

Question: How did the EC50 (human PTGR2 [1]) turn out when `COc1ccc(Cc2c(C)[nH]c3nc(C(C)N4CCN(c5ccccc5)CC4)nn3c2=O)c(F)c1` (centres unmarked) [Compound 5, 6-(2-fluoro-4-methoxybenzyl)-5-methyl-2-(1-(4-phenylpiperazin-1-yl)ethyl)-[1,2,4]triazolo[1,5-a]pyrimidin-7(4H)-one] was run?
Answer: Its EC50 is 40.5 nM.

Question: And the IC50 (human PTGR2 [2])?
Answer: Its IC50 is 12.6 nM.

Question: Which results are given for `Cc1[nH]c2nc(CN3CCN(c4ccccc4)CC3)nn2c(=O)c1Cc1cccc(Cl)c1F` [Compound 6, 6-(3-chloro-2-fluorobenzyl)-5-methyl-2-((4-phenylpiperazin-1-yl)methyl)-[1,2,4]triazolo[1,5-a]pyrimidin-7(3H)-one]?
Answer: EC50 (human PTGR2 [1]): 300 nM; IC50 (human PTGR2 [2]): 0.02 nM

Question: Which results are given for `Cc1[nH]c2nc(C(C)N3CCN(c4ccccc4)CC3)nn2c(=O)c1Cc1cc(F)c(F)cc1F` (centres unmarked) [Compound 7, 5-methyl-2-(1-(4-phenylpiperazin-1-yl)ethyl)-6-(2,4,5-trifluorobenzyl)-[1,2,4]triazolo[1,5-a]pyrimidin-7(4H)-one]?
Answer: EC50 (human PTGR2 [1]): 7 nM; IC50 (human PTGR2 [2]): 4.1 nM

Question: Which EC50 (human PTGR2 [1]) does the source give for `Cc1[nH]c2nc(C(C)N3CCN(c4ccccc4)CC3)nn2c(=O)c1Cc1cccc(F)c1` (centres unmarked) [Compound 10, 6-(3-fluorobenzyl)-5-methyl-2-(1-(4-phenylpiperazin-1-yl)ethyl)-[1,2,4]triazolo[1,5-a]pyrimidin-7(4H)-one] here?
Answer: Its EC50 is 77.4 nM.

Question: What about the IC50 (human PTGR2 [2]) of the same compound?
Answer: The IC50 was 7.9 nM.

Question: What does the source list for `Cc1[nH]c2nc(C(C)N3CCN(c4ccccc4)CC3)nn2c(=O)c1Cc1cccc(Cl)c1` (centres unmarked) [Compound 11, 6-(3-chlorobenzyl)-5-methyl-2-(1-(4-phenylpiperazin-1-yl)ethyl)-[1,2,4]triazolo[1,5-a]pyrimidin-7(3H)-one]?
Answer: EC50 (human PTGR2 [1]): 61.4 nM; IC50 (human PTGR2 [2]): 54.3 nM

Question: For `Cc1[nH]c2nc(CN3CCN(c4ccccc4)CC3)nn2c(=O)c1Cc1cccc(Cl)c1` [Compound 12, 6-(3-chlorobenzyl)-5-methyl-2-((4-phenylpiperazin-1-yl)methyl)-[1,2,4]triazolo[1,5-a]pyrimidin-7(3H)-one], which EC50 (human PTGR2 [1]) is on record?
Answer: Its EC50 is 233 nM.

Question: And the IC50 (human PTGR2 [2])?
Answer: Its IC50 is 0.01 nM.

Question: How did the EC50 (human PTGR2 [1]) turn out when `Cc1[nH]c2nc(C(C)N3CCN(c4ccccc4)CC3)nn2c(=O)c1Cc1cccc(C(F)(F)F)c1` (centres unmarked) [Compound 13, 5-methyl-2-(1-(4-phenylpiperazin-1-yl)ethyl)-6-(3-(trifluoromethyl)benzyl)-[1,2,4]triazolo[1,5-a]pyrimidin-7(4H)-one] was run?
Answer: Its EC50 is 19.2 nM.

Question: What about the IC50 (human PTGR2 [2]) of the same compound?
Answer: Its IC50 is 61.9 nM.

Question: Which results are given for `COc1ccc(Cc2c(C)[nH]c3nc(C(C)N4CCN(c5ccccc5)CC4)nn3c2=O)cc1F` (centres unmarked) [Compound 15, 6-(3-fluoro-4-methoxybenzyl)-5-methyl-2-(1-(4-phenylpiperazin-1-yl)ethyl)-[1,2,4]triazolo[1,5-a]pyrimidin-7(4H)-one]?
Answer: EC50 (human PTGR2 [1]): 64.5 nM; IC50 (human PTGR2 [2]): 33.9 nM

Question: How did the EC50 (human PTGR2 [1]) turn out when `Cc1ccc(Cc2c(C)[nH]c3nc(C(C)N4CCN(c5ccccc5)CC4)nn3c2=O)cc1` (centres unmarked) [Compound 17, 5-methyl-6-(4-methylbenzyl)-2-(1-(4-phenylpiperazin-1-yl)ethyl)-[1,2,4]triazolo[1,5-a] pyrimidin-7(4H)-one] was run?
Answer: The EC50 was 104 nM.

Question: And the IC50 (human PTGR2 [2])?
Answer: Its IC50 is 12 nM.

Question: With `COc1ccc(Cc2c(C)[nH]c3nc(C(C)N4CCN(c5ccccc5)CC4)nn3c2=O)cc1` (centres unmarked) [Compound 18, 6-(4-methoxybenzyl)-5-methyl-2-(1-(4-phenylpiperazin-1-yl)ethyl)-[1,2,4]triazolo[1,5-a] pyrimidin-7(4H)-one] as the compound, how does the EC50 (human PTGR2 [1]) read?
Answer: The EC50 was 280 nM.

Question: And the IC50 (human PTGR2 [2])?
Answer: The IC50 was 1.7 nM.

Question: For `Cc1[nH]c2nc(C(C)N3CCN(c4ccccc4)CC3)nn2c(=O)c1Cc1ccc(F)cc1` (centres unmarked) [Compound 19, 6-(4-fluorobenzyl)-5-methyl-2-(1-(4-phenylpiperazin-1-yl)ethyl)-[1,2,4]triazolo[1,5-a]pyrimidin-7(4H)-one], which EC50 (human PTGR2 [1]) is on record?
Answer: Its EC50 is 56.9 nM.

Question: What about the IC50 (human PTGR2 [2]) of the same compound?
Answer: The IC50 was 8.9 nM.

Question: What does the source list for `Cc1[nH]c2nc(C(C)N3CCN(c4ccccc4)CC3)nn2c(=O)c1Cc1ccc(Cl)cc1` (centres unmarked) [Compound 20, 6-(4-chlorobenzyl)-5-methyl-2-(1-(4-phenylpiperazin-1-yl)ethyl)-[1,2,4]triazolo[1,5-a]pyrimidin-7(4H)-one]?
Answer: EC50 (human PTGR2 [1]): 161 nM; IC50 (human PTGR2 [2]): 17.2 nM

Question: How did the EC50 (human PTGR2 [1]) turn out when `Cc1[nH]c2nc(CN3CCN(c4nccs4)CC3)nn2c(=O)c1Cc1cccc(Cl)c1` [Compound 26, 6-(3-chlorobenzyl)-5-methyl-2-((4-(thiazol-2-yl)piperazin-1-yl)methyl)-[1,2,4]triazolo[1,5-a] pyrimidin-7(3H)-one] was run?
Answer: The EC50 was 530 nM.

Question: And the IC50 (human PTGR2 [2])?
Answer: Its IC50 is 23.5 nM.

Question: Which results are given for `CCCc1cc(=O)[nH]c(SCC(=O)N2CCN(c3ccccc3OC)[C@@H](C)C2)n1` [Compound 28, (S)-2-((2-(4-(2-methoxyphenyl)-3-methylpiperazin-1-yl)-2-oxoethyl)thio)-6-propylpyrimidin-4(3H)-one]?
Answer: EC50 (human PTGR2 [1]): 108 nM; IC50 (human PTGR2 [2]): 85 nM

Question: What does the source list for `COc1ccccc1N1CCN(Cc2nc3[nH]c(C)c(Cc4cccc(Cl)c4)c(=O)n3n2)CC1` [Compound 32, 6-(3-chlorobenzyl)-2-((4-(2-methoxyphenyl)piperazin-1-yl)methyl)-5-methyl-[1,2,4]triazolo[1,5-a]pyrimidin-7(3H)-one]?
Answer: EC50 (human PTGR2 [1]): 174 nM; IC50 (human PTGR2 [2]): 0.5 nM

Question: How did the EC50 (human PTGR2 [1]) turn out when `Cc1[nH]c2nc(C=C3CCN(c4ccccc4)CC3)nn2c(=O)c1Cc1cccc(Cl)c1` [Compound 34, 6-(3-chlorobenzyl)-5-methyl-2-((1-phenylpiperidin-4-ylidene)methyl)-[1,2,4]triazolo[1,5-a] pyrimidin-7(4H)-one] was run?
Answer: The EC50 was 427 nM.

Question: What about the IC50 (human PTGR2 [2]) of the same compound?
Answer: The IC50 was 60.2 nM.

Question: `CCCc1cc(=O)[nH]c(SCC(=O)N2CCN(c3nccs3)CC2)n1` [Compound 46, 2-((2-oxo-2-(4-(thiazol-2-yl)piperazin-1-yl)ethyl)thio)-6-propylpyrimidin-4(3H)-one] was tested. Which EC50 (human PTGR2 [1]) did it give?
Answer: Its EC50 is 119 nM.

Question: And the IC50 (human PTGR2 [2])?
Answer: Its IC50 is 86.9 nM.

Question: Which EC50 (human PTGR2 [1]) does the source give for `COc1ccccc1N1CCN(C(=O)CSc2nc(C(C)C)cc(=O)[nH]2)C[C@H]1C` [Compound 53, (R)-6-isopropyl-2-((2-(4-(2-methoxyphenyl)-3-methylpiperazin-1-yl)-2-oxoethyl)thio)pyrimidin-4(3H)-one] here?
Answer: The EC50 was 207 nM.

Question: What about the IC50 (human PTGR2 [2]) of the same compound?
Answer: The IC50 was 52.5 nM.

Question: With `Cc1[nH]c2nc(C(C)N3CCN(c4ccccc4)[C@H](C)C3)nn2c(=O)c1Cc1ccc(F)cc1` (stereo partly drawn) [Compound 54, 6-(4-fluorobenzyl)-5-methyl-2-(1-((R)-3-methyl-4-phenylpiperazin-1-yl)ethyl)-[1,2,4]triazolo [1,5-a]pyrimidin-7(4H)-one] as the compound, how does the EC50 (human PTGR2 [1]) read?
Answer: Its EC50 is 248 nM.

Question: And the IC50 (human PTGR2 [2])?
Answer: Its IC50 is 31.8 nM.

Question: Which results are given for `CCOc1ccccc1N1CCN(C(=O)CSc2nc(C(C)C)cc(=O)[nH]2)CC1` [Compound 63, 2-((2-(4-(2-ethoxyphenyl)piperazin-1-yl)-2-oxoethyl)thio)-6-isopropylpyrimidin-4(3H)-one]?
Answer: EC50 (human PTGR2 [1]): 164 nM; IC50 (human PTGR2 [2]): 81.8 nM
